In assay [1] the target is T1, p75 receptor (truncated form, residues 1-222) (Homo sapiens, UniProt P08138).
T1 construct: truncated form (residues 1-222, molecular weight=56 KDa) of the p75 receptor; biotin (chemical label, immobilised on streptavidin); purchased Chiron Corporation, Emeryville, Calif; (also commercially available from Austral Biologicals, Inc., San Diego, Calif.)
T1 sequence (P08138 29-250): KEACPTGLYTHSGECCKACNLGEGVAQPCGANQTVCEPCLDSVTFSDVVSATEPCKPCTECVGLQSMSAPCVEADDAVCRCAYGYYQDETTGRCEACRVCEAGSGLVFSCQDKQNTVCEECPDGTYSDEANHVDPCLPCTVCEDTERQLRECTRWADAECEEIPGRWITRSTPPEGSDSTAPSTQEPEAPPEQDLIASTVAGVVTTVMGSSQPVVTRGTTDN
Nature of the assay: Inhibition of 125I-NGF binding to the NGF p75 receptor. The conditions noted are these: 2 nM 125I-NGF, 2 hours at room temperature; for inhibition at 10 µM: at 10,000 nM, read-out: Inhibition of 125I-NGF Binding to p 75 (% inh); for IC50: read-out: Inhibition of 125I-NGF Binding to p 75 (IC50). On the procedure:
Binding assays of novel compounds to the NGF p75 receptor are performed using a truncated form (residues 1-222, molecular weight=56 KDa) of the p75 receptor, originally obtained from Chiron Corporation, Emeryville, Calif., but also commercially available from Austral Biologicals, Inc. (San Diego, Calif.), on plastic 96 well microtiter plates (Immulon II Dynatech). The wells are coated with 50 μl/well of 20 μg/ml streptavidin in a […] (DPBS). The plates are then incubated at room temperature for 6 hours. The excess streptavidin is then poured out, the wells are washed with a 0.1% solution of bovine serum albumin (BSA) in DPBS. To each well is then added […] of a DPBS solution containing the truncated p75 receptor, which has previously been reacted with biotin by standard procedures. The plates are then incubated at room temperature for 2 hours, and washed with 0.2% BSA/DPBS. To each well is added 98 μl of 2 nM ^125 I-NGF, followed by 2 μl/well of a concentration of test compound that is 50 times greater than the desired final test concentration. The plates are incubated for 2 hours at room temperature. […]

Assay [2] deals with basal forebrain cholinergic neurons. The note with it: cited from earlier work.
Another assay deals with Alzheimer's disease. The conditions noted are these: recent clinical findings in humans; cited from earlier work.
A further assay has as its system sensory neuropathies. The note with it: cited from earlier work.
The test system of assay [3] is substantia nigra dopaminergic neurons. The conditions noted are these: cited from earlier work.

Here are results for 13 molecules from patent US5340808A, “Fused pyridazinoquinazolone derivatives as neurotrophic agents” (Warner Lambert Company, priority 1992, dated 1994).

As usually defined, the inhibition is the share of the control response that was lost under treatment. In general, IC50 refers to the point on the concentration scale where inhibition reaches its midpoint.

Regarding `CC(=O)Nc1ccc2c(=O)n3nc(C(=O)O)ccc3nc2c1` [7 -Acetylamino-10-oxo-10H-pyridazino[6,1-b]quinazoline-2-carboxylic acid], the inhibition at 10 µM in assay [1] came out at 42%.

`Cc1ccc2c(=O)n3nc(C(=O)O)ccc3nc2c1` [7-Methyl-10-oxo-10H-pyridazino[6,1-b]quinazoline-2-carboxylic acid]: the IC50 in assay [1] is 4900 nM.

As to `O=C(Nc1ccc2nc3ccc(C(=O)O)nn3c(=O)c2c1)c1ccccc1` [8-(Benzoylamino)-10-oxo-10H-pyridazino[6,1-b]-quinazoline-2-carboxylic acid], the IC50 in assay [1] amounted to 67 nM.

For `O=C(O)c1ccc2nc3ccc(Cl)cc3c(=O)n2n1` [8-Chloro-10-oxo-10H-pyridazino[6,1-b]quinazoline-2-carboxylic acid], the IC50 in assay [1] turned out to be 4000 nM.

For `COc1ccc2nc3ccc(C(=O)O)nn3c(=O)c2c1` [8-Methoxy-10-oxo-10H-pyridazino[6,1-b]quinazoline-2-carboxylic acid], in assay [1], the half-inhibitory concentration (IC50) was 1500 nM.

In the case of `Cc1ccc2nc3ccc(C(=O)O)nn3c(=O)c2c1` [8-Methyl-10-oxo-10H-pyridazino[6,1-b]quinazoline-2-carboxylic acid], the IC50 in assay [1] amounted to 1800 nM.

For the molecule `Cc1ccc(C(=O)Nc2ccc3nc4ccc(C(=O)O)nn4c(=O)c3c2)cc1` [8-[(4-Methylbenzoyl)amino]-10-oxo-10H-pyridazino [6,1-b]quinazoline-2-carboxylic acid], in assay [1], the IC50 was determined as 238 nM.

For the molecule `O=C(O)c1ccc2c(=O)n3nc(C(=O)O)ccc3nc2c1` [10-Oxo-10H-pyridazino[6,1-b]quinazoline-2,7-dicarboxylic acid], in assay [1], the inhibition at 10 µM turned out to be 46%.

With `O=C(O)c1ccc2nc3ccc(C(=O)O)nn3c(=O)c2c1` [10-Oxo-10H-pyridazino[6,1-b]quinazoline-2,8-dicarboxylic acid], in assay [1], the IC50 turned out to be 2190 nM.

Consider `O=C(O)c1ccc2nc3ccccc3c(=O)n2n1` [10-Oxo-10H-pyridazino[6,1-b]quinazoline-2-carboxylic acid], for which the inhibition at 10 µM in assay [1] was found to be 39%.

On to `O=C(O)c1ccc2nc3cc4ccccc4cc3c(=O)n2n1` [12-Oxo-12H-benzo[g]pyridazino[3,2-b]quinazoline-2-carboxylic acid], for which the IC50 in assay [1] is 344 to 369 nM.

For “NGF: β-subunit, a dimer consisting of two equivalent monomers of approximately 13,000 dalton molecular weight”, in assay [2] (animals with atrophied or lesioned basal forebrain cholinergic neurons), the “behavioral impairment associated with atrophied or lesioned basal forebrain cholinergic neurons” value is on record as “reverse the associated behavioral impairment”. The “ability of brain cholinergic neurons to survive a chemical insult” value in assay [2] (chemical insult) is “enhances the ability of brain cholinergic neurons to survive a chemical insult”. Further, the “degeneration of neurons in the medial septal nucleus after lesion of the septo-hippocampal pathway” value in assay [2] (into the cerebrospinal fluid via a miniosmotic pump) is given as “This neuronal degeneration can be prevented”. In addition, the “usefulness in the treatment of AD” value in the assay with Alzheimer's disease is listed as “treatment with NGF is useful in the treatment of AD”. Moreover, the “development of large-fiber sensory neuropathies from cisplatin, and animal model of diabetes-induced neuropathy” value with sensory neuropathies (cisplatin, animal model of diabetes-induced neuropathy) is given as “efficacious”. For the same molecule, the “development of small-fiber sensory neuropathies from taxol” value with sensory neuropathies (taxol) was “prevents the development of small-fiber sensory neuropathies”.

B1: BDNF: member of the neurotrophins, a family of related neurotrophic peptides (protein, UniProt P23560 19-247, looked up)
Neurotrophic factor BDNF …: APMKEANIRGQGGLAYPGVRTHGTLESVNGPKAGSRGLTSLADTFEHVIEELLDEDQKVRPNEENNKDADLYTSRVMLSSQVPLEPPLLFLLEEYKNYLDAANMSMRVRRHSDPARRGELSVCDSISEWVTAADKKTAVDMSGGTVTVLEKVPVSKGQLKQYFYETKCNPMGYTKEGCRGIDKRHWNSQCRTTQSYVRALTMDSKKRIGWRFIRIDTSCVCTLTIKRGR
For B1, the “neurotrophic effects on substantia nigra dopaminergic neurons” value in assay [3] is recorded as “exerts neurotrophic effects on substantia nigra dopaminergic neurons”.
